The results in this text go back to patent publication US20250145606A1 (Arcus Biosciences, Inc., priority 2023, published 2025).

Holding throughout (details): biochemical
One experiment deals with c-Kit (Homo sapiens (Human), UniProt P10721). In words: Inhibition of c-Kit kinase activity (HTRF KinEASE-TK). The experiment is classed as biochemical. In outline:
(§1)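 Recombinant kinases (2 nM CSF1R and c-Kit, 10 nM PDGFRα/β, 2× working) preincubated 1 h with compound in 50 mM HEPES pH 7.4, 5 mM MgCl2 (c-Kit) or 10 mM (others), 2 mM MnCl2; 2× ATP: c-Kit 16 μM, PDGFRα 1 μM, PDGFRβ 40 μM, CSF1R 20 μM. 120 min reaction at rt; TR-FRET 665/620 nm; IC50 by 4-parameter fit.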
(In TR-FRET formats the signal depends on donor and acceptor labels being close together.)

The target in the next experiment is PDGFRα (Homo sapiens (Human), UniProt P16234). In words: Inhibition of PDGFRα kinase activity (HTRF KinEASE-TK). In outline: as §1
Sequence of PDGFRα (P16234 24-1089): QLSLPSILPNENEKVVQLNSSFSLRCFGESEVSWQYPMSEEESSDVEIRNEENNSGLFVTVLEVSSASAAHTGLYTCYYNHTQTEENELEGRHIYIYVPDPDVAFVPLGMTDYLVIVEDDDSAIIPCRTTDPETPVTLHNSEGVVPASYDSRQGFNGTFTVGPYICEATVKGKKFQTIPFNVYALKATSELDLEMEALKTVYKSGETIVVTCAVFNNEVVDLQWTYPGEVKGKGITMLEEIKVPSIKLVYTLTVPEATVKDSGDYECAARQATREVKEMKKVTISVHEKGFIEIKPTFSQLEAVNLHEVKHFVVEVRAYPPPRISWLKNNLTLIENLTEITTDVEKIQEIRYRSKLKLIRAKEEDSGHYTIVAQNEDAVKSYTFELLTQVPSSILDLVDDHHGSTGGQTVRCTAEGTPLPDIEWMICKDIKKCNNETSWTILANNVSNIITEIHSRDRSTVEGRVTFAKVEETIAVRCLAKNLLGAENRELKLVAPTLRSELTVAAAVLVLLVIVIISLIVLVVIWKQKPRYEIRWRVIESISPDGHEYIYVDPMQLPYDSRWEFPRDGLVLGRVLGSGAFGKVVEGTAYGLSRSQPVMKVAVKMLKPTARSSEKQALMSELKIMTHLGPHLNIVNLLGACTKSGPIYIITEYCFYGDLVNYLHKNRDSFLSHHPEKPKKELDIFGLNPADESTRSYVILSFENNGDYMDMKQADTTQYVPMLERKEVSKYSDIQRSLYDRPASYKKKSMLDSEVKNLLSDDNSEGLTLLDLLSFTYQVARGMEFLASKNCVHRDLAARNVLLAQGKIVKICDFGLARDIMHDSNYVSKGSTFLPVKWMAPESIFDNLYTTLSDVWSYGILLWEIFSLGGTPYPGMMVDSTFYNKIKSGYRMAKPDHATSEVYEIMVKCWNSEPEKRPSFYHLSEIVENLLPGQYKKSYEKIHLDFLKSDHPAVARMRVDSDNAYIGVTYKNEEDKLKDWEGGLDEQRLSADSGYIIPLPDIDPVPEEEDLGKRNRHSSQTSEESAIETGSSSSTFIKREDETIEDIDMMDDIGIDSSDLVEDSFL
A further experiment has as its target CSF1R (Homo sapiens (Human), UniProt P07333). In words: Inhibition of CSF1R kinase activity (HTRF KinEASE-TK). Summed up: as §1
A further experiment concerns the target FLT3 (Homo sapiens (Human), UniProt P36888). In words: Inhibition of FLT3 kinase activity (HTRF KinEASE-TK). The experiment is classed as biochemical. The procedure: Inhibition of c-Kit, PDGFRα, PDGFRβ, CSFIR and FLT3 Kinase Activity
Compounds were evaluated to determine the potency with which they inhibit the kinase activity of the following panel of tyrosine kinases: c-Kit (SignalChem, Product #: K06-11BG), PDGFRα (SignalChem, Product #: P12-18G), PDGFRβ (SignalChem, Product #: P13-11G), CSFIR (SignalChem, Product #: C74-11G) and FLT3 (Invitrogen, Product #: PR4666C). Activity was determined as a function of phosphorylated biotinylated TK peptide generated by the transfer of phosphate from ATP as measured by the use of the HTRF KinEASE-TK assay kit (Cisbio, Product #: 62TKOPEJ). Levels of phosphorylated biotinylated TK peptide (Part 61TKOBLC of KinEASE assay kit) are quantified by its capture by phosphor-TK-Antibody-Cryptate (Part of KinEASE assay kit) and XL665-labeled Streptavidin (Part 610SAXLG of KinEASE assay kit) followed by measurement of Time-Resolved Fluorescence Resonance Energy Transfer (TR-FRET) signal. On the day of the assay, compounds were solubilized in DMSO and dispensed into a 384-well white Opti-plate (PerkinElmer, catalog #6007290) to generate a 22 point 1:2 titration. Enzyme solution was prepared for each of the tyrosine kinases in 50 mM HEPES, pH 7.4, 5 mM MgCl2 for c-Kit or 10 mM MgCl2 for FLT3, CSFIR, PDGFRa and PDGFRβ, 2 mM MnCl2, 0.01% Brij-35 and 0.01% BSA. Working enzyme concentrations were prepared for c-Kit at 2 nM (2×), PDGFRa and PDGFRß at 10 nM (2×), CSFIR at 2 nM (2×) and FLT3 at 0.4 nM (2×). Five microliters of enzyme dilution of each tyrosine kinase were added to their respective 384-well white Opti-plate pre-dispensed with compound and allowed to incubate for 1 h at rt. Utilizing the same enzyme buffer recipe, 2x substrate mixes were prepared for each enzyme as follows: For c-Kit, 1.6 μM (2×) TK substrate and 16 μM (2×) ATP (Promega, catalog #V915). For PDGFRα, 3.2 μM TK substrate and 1 μM ATP. For PDGFRβ, 3.2 μM TK substrate and 40 μM ATP. For CSFIR, […] TK substrate and 20 μM ATP. For FLT3, 3.2 μM TK substrate and 100 μM ATP. Reactions were initiated by addition of 5 μL of the respective 2x substrate mix to each well of the plates containing the respective tyrosine kinase enzymes and were allowed to proceed for 120 minutes at rt, except for FLT3, the reaction time is 45 min. Following the reaction, 10 μL of detection mix consisting of 0.2 μM (2×) of Streptavidin-XL665 and 2 μM (2×) of TK-Antibody-Cryptate prepared in detection buffer (Part 62SDBRDF of KinEASE assay kit) was added and then allowed to incubate for 60 min. The TR-FRET signal was quantified by measuring the ratio of emission at 665 nm to 620 nm after excitation at 320 nm by reading on a PerkinElmer Envision multimode reader. Compound potencies (IC50 values) were determined using a standard 4-parameter non-linear regression fit.

The next experiment addresses PDGFRβ (Homo sapiens (Human), UniProt P09619). In words: Inhibition of PDGFRβ kinase activity (HTRF KinEASE-TK). Summed up:
as §1

Structures are written as SMILES.

Sequence of FLT3 (P36888 27-993): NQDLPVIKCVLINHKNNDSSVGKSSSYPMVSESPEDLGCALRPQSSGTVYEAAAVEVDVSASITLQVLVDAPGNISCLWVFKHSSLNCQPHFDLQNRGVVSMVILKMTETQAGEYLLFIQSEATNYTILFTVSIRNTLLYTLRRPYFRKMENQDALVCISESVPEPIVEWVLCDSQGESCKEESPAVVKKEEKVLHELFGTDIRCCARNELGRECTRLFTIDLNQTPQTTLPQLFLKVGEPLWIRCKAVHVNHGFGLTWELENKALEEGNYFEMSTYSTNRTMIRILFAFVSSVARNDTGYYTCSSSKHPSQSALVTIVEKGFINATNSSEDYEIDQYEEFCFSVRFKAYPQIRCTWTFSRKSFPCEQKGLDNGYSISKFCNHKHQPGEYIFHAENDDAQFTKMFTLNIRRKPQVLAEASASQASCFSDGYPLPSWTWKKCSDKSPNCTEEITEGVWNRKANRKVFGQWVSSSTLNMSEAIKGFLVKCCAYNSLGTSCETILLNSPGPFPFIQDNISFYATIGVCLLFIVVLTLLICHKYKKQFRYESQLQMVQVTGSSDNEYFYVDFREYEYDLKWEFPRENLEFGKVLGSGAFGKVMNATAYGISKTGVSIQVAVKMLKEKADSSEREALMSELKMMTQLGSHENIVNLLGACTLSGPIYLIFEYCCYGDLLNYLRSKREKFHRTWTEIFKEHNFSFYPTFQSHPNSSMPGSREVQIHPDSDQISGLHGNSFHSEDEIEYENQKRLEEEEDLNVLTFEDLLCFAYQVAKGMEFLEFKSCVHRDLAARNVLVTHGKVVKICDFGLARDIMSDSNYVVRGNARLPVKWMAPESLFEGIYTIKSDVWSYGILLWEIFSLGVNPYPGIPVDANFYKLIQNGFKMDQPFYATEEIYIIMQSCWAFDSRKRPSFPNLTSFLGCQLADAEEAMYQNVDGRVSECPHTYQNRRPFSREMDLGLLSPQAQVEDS
Sequence of PDGFRβ (P09619 33-1106): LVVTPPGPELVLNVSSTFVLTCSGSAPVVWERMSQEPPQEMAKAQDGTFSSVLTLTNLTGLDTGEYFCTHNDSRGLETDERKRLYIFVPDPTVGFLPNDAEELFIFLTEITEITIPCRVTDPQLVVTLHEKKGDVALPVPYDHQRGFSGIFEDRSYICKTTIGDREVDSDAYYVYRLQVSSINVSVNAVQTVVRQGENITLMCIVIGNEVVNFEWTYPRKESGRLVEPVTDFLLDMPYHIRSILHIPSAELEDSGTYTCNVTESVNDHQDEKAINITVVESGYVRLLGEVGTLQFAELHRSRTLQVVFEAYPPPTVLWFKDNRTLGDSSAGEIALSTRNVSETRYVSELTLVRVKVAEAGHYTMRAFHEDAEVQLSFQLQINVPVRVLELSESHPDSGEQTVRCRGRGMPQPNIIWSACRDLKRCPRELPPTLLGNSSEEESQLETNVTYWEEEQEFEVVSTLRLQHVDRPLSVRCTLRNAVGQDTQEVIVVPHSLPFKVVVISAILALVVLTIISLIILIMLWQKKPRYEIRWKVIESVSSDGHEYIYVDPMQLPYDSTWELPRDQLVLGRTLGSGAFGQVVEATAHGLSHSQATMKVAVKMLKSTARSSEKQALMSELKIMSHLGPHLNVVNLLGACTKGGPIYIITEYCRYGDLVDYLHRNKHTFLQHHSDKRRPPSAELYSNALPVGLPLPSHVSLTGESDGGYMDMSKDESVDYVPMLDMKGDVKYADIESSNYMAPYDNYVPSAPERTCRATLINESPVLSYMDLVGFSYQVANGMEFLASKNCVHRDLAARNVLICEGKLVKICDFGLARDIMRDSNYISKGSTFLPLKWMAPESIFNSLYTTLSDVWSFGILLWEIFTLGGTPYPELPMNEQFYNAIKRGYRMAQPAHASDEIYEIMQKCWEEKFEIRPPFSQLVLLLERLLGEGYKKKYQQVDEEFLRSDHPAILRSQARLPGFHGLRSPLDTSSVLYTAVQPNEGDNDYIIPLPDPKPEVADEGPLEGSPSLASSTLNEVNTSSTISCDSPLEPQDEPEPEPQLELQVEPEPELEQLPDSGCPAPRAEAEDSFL
Sequence of CSF1R (P07333 20-972): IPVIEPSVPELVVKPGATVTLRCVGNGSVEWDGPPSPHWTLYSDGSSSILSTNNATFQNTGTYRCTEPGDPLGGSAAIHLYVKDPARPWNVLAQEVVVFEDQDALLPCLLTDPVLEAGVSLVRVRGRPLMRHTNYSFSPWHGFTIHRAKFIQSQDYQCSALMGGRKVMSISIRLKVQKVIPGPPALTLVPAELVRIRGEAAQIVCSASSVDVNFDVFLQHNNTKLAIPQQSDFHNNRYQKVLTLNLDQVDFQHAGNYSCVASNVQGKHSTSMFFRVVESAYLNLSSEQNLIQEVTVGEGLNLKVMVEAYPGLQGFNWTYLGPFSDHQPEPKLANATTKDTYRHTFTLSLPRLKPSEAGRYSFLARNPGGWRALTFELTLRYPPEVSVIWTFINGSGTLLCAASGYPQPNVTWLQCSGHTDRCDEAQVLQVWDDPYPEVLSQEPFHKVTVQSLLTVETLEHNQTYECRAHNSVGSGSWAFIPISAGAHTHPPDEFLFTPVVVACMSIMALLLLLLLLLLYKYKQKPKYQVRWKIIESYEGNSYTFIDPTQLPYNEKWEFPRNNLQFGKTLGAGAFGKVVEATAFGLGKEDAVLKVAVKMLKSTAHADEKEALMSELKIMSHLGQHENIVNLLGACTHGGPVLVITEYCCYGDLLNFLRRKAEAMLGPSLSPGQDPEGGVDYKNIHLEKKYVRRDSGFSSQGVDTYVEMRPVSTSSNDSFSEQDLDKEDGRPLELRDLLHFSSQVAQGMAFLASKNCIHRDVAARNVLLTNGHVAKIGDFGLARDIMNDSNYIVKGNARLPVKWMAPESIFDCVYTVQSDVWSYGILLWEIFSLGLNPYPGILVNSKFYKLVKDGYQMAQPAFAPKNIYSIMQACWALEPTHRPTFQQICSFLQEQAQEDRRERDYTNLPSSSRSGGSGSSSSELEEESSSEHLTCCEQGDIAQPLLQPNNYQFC
Sequence of c-Kit (P10721 26-976): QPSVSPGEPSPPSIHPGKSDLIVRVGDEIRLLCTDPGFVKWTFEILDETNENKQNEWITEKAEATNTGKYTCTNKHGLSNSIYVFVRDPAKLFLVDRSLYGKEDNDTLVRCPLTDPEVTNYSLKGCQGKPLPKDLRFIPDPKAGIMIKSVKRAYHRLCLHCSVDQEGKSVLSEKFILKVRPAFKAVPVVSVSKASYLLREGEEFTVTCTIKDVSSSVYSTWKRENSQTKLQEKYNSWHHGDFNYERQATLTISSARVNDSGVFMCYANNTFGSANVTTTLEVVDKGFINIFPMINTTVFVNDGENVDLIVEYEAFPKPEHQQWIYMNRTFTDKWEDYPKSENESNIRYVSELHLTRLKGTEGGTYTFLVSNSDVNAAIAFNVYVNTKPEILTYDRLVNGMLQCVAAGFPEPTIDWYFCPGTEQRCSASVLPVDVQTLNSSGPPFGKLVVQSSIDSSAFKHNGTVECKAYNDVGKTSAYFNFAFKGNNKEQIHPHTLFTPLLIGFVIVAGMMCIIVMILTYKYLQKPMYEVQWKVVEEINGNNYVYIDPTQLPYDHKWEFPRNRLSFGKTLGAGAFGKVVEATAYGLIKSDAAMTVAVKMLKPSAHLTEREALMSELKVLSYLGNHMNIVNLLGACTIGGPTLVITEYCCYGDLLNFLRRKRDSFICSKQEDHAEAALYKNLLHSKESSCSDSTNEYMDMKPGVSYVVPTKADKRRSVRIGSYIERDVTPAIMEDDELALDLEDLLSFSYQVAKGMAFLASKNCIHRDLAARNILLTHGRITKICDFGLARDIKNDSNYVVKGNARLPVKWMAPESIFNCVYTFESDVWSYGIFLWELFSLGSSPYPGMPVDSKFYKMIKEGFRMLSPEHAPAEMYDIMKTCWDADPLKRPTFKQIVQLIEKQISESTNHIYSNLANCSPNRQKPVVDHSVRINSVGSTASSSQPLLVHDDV

By IC50 is commonly meant the concentration that gives 50% inhibition. A lower IC50 goes with inhibition by little substance. Consider `Cc1cc(F)c(C(=O)Nc2ccc(OC3CC3)cn2)cc1NC(=O)c1cnc(NC(=O)N2CCC2)s1` [Example 6, 2-(Azetidine-1-carbonylamino)-N-[5-[(5-cyclopropyloxypyridin-2-yl)carbamoyl]-4-fluoro-2-methylphenyl]-1,3-thiazole-5-carboxamide], for which the IC50 at c-Kit is under 100 nM; against PDGFRα it was under 100 nM; on CSF1R, under 100 nM; against FLT3, over 1000 nM; against PDGFRβ, under 100 nM.

In the case of `Cc1ncc(C(=O)Nc2cc(C(=O)Nc3ccc(C(F)(F)F)cn3)c(F)cc2C)s1` [Example 14, N-[4-Fluoro-2-methyl-5-[[5-(trifluoromethyl)pyridin-2-yl]carbamoyl]phenyl]-2-methyl-1,3-thiazole-5-carboxamide], the IC50 is under 100 nM at c-Kit (HTRF KinEASE-TK); over 1000 nM against PDGFRα (HTRF KinEASE-TK); over 1000 nM against CSF1R (HTRF KinEASE-TK); over 1000 nM on FLT3 (HTRF KinEASE-TK); over 1000 nM at PDGFRβ (HTRF KinEASE-TK).

As for `Cc1ncc(C(=O)Nc2cc(C(=O)Nc3ncc(C4CC4)cn3)c(F)cc2C)s1` [Example 44, NV-[5-[(5-cyclopropylpyrimidin-2-yl)carbamoyl]-4-fluoro-2-methylphenyl]-2-methyl-1,3-thiazole-5-carboxamide], the IC50 was under 100 nM at c-Kit (HTRF KinEASE-TK); over 1000 nM at PDGFRα (HTRF KinEASE-TK); over 1000 nM on CSF1R (HTRF KinEASE-TK); over 1000 nM against FLT3 (HTRF KinEASE-TK); over 1000 nM at PDGFRβ (HTRF KinEASE-TK).

As to `Cc1ncc(C(=O)Nc2cc(C(=O)Nc3ccn(C4CCC4)n3)c(F)cc2C)s1` [Example 61, N-[5-[(1-Cyclobutylpyrazol-3-yl)carbamoyl]-4-fluoro-2-methylphenyl]-2-methyl-1,3-thiazole-5-carboxamide], the IC50 is under 100 nM against c-Kit (HTRF KinEASE-TK); over 1000 nM against PDGFRα (HTRF KinEASE-TK); over 1000 nM against CSF1R (HTRF KinEASE-TK); over 1000 nM at FLT3 (HTRF KinEASE-TK); over 1000 nM on PDGFRβ (HTRF KinEASE-TK).

With `Cc1cc(F)c(C(=O)N[C@H]2CCOC2)cc1NC(=O)c1cnc(NC(=O)N2CCOCC2)s1` [Example 105, N-[5-[[4-fluoro-2-methyl-5-[[(3S)-oxolan-3-yl]carbamoyl]phenyl]carbamoyl]-1,3-thiazol-2-yl]morpholine-4-carboxamide], the IC50 is under 100 nM at c-Kit (HTRF KinEASE-TK); over 1000 nM against PDGFRα (HTRF KinEASE-TK); over 1000 nM against CSF1R (HTRF KinEASE-TK); over 1000 nM at FLT3 (HTRF KinEASE-TK); over 1000 nM on PDGFRβ (HTRF KinEASE-TK).

For `Cc1cc(F)c(C(=O)Nc2ccc3c(n2)COC3)cc1NC(=O)c1cnc(N)s1` [Example 120, 2-Amino-N-[5-(5,7-dihydrofuro [3,4-b]pyridin-2-ylcarbamoyl)-4-fluoro-2-methylphenyl]-1,3-thiazole-5-carboxamide], the IC50 is under 100 nM on c-Kit (HTRF KinEASE-TK); over 1000 nM against PDGFRα (HTRF KinEASE-TK); over 1000 nM on CSF1R (HTRF KinEASE-TK); over 1000 nM against FLT3 (HTRF KinEASE-TK); over 1000 nM against PDGFRβ (HTRF KinEASE-TK).

On to `Cc1cc(F)c(C(=O)N[C@H]2C[C@H]2F)cc1NC(=O)c1cnc(N)s1` [Example 136, 2-Amino-N-[4-fluoro-5-[[(1S,2R)-2-fluorocyclopropyl]carbamoyl]-2-methylphenyl]-1,3-thiazole-5-carboxamide], for which the IC50 at c-Kit (HTRF KinEASE-TK) is 100 to 1000 nM; at PDGFRα (HTRF KinEASE-TK), 100 to 1000 nM; against CSF1R (HTRF KinEASE-TK) it was over 1000 nM; against FLT3 (HTRF KinEASE-TK) it was over 1000 nM; against PDGFRβ (HTRF KinEASE-TK) it was over 1000 nM.

Turning to `Cc1cc(F)c(C(=O)N[C@@H]2C[C@@H]2F)cc1NC(=O)c1cnc(N)s1` [Example 137], the IC50 against c-Kit (HTRF KinEASE-TK) was under 100 nM; against PDGFRα (HTRF KinEASE-TK) it was 100 to 1000 nM; against CSF1R (HTRF KinEASE-TK) it was over 1000 nM; against FLT3 (HTRF KinEASE-TK), over 1000 nM; on PDGFRβ (HTRF KinEASE-TK) it was over 1000 nM.

On to `Cc1cc(F)c(C(=O)N[C@H]2C[C@@H]2F)cc1NC(=O)c1cnc(N)s1` [Example 138, 2-Amino-N-[4-fluoro-5-[[(1S,2S)-2-fluorocyclopropyl]carbamoyl]-2-methylphenyl]-1,3-thiazole-5-carboxamide], for which the IC50 against c-Kit (HTRF KinEASE-TK) was under 100 nM; at PDGFRα (HTRF KinEASE-TK), 100 to 1000 nM; against CSF1R (HTRF KinEASE-TK), over 1000 nM; at FLT3 (HTRF KinEASE-TK), over 1000 nM; at PDGFRβ (HTRF KinEASE-TK) it was over 1000 nM.

For the compound `Cc1cnc(NC(=O)c2cc(NC(=O)c3cnc(N)s3)c(C)cc2F)s1` [Example 160, 2-Amino-N-[4-fluoro-2-methyl-5-[(5-methyl-1,3-thiazol-2-yl)carbamoyl]phenyl]-1,3-thiazole-5-carboxamide], the IC50 is under 100 nM against c-Kit (HTRF KinEASE-TK); over 1000 nM on PDGFRα (HTRF KinEASE-TK); 100 to 1000 nM at CSF1R (HTRF KinEASE-TK); over 1000 nM at FLT3 (HTRF KinEASE-TK); 100 to 1000 nM against PDGFRβ (HTRF KinEASE-TK).

Consider `Cc1cc(F)c(C(=O)Nc2cnn(C3CC3)c2)cc1NC(=O)c1cnc(N)s1` [Example 161, 2-Amino-N-[5-[(1-cyclopropylpyrazol-4-yl)carbamoyl]-4-fluoro-2-methylphenyl]-1,3-thiazole-5-carboxamide], for which the IC50 at c-Kit (HTRF KinEASE-TK) is under 100 nM; against PDGFRα (HTRF KinEASE-TK) it was 100 to 1000 nM; against CSF1R (HTRF KinEASE-TK), 100 to 1000 nM; against FLT3 (HTRF KinEASE-TK), over 1000 nM; at PDGFRβ (HTRF KinEASE-TK) it was 100 to 1000 nM.

Consider `Cc1cc(F)c(C(=O)Nc2ccn(C)n2)cc1NC(=O)c1cnc(N)s1` [Example 163, 2-Amino-N-[4-fluoro-2-methyl-5-[(1-methylpyrazol-3-yl)carbamoyl]phenyl]-1,3-thiazole-5-carboxamide], for which the IC50 at c-Kit (HTRF KinEASE-TK) is under 100 nM; against PDGFRα (HTRF KinEASE-TK), over 1000 nM; against CSF1R (HTRF KinEASE-TK), over 1000 nM; on FLT3 (HTRF KinEASE-TK), over 1000 nM; at PDGFRβ (HTRF KinEASE-TK), over 1000 nM.

With `Cc1ncc(NC(=O)c2cc(NC(=O)c3cnc(N)s3)c(C)cc2F)s1` [Example 166, 2-Amino-N-[4-fluoro-2-methyl-5-[(2-methyl-1,3-thiazol-5-yl)carbamoyl]phenyl]-1,3-thiazole-5-carboxamide], the half-maximal inhibitory concentration (IC50) against c-Kit (HTRF KinEASE-TK) was under 100 nM; against PDGFRα (HTRF KinEASE-TK) it was over 1000 nM; against CSF1R (HTRF KinEASE-TK), 100 to 1000 nM; at FLT3 (HTRF KinEASE-TK) it was over 1000 nM; against PDGFRβ (HTRF KinEASE-TK) it was 100 to 1000 nM.

For the compound `Cc1cc(F)c(C(=O)Nc2cnn(C)c2)cc1NC(=O)c1cnc(N)s1` [Example 167, 2-Amino-N-[4-fluoro-2-methyl-5-[(1-methylpyrazol-4-yl)carbamoyl]phenyl]-1,3-thiazole-5-carboxamide], the IC50 against c-Kit (HTRF KinEASE-TK) is under 100 nM; on PDGFRα (HTRF KinEASE-TK) it was over 1000 nM; against CSF1R (HTRF KinEASE-TK) it was over 1000 nM; against FLT3 (HTRF KinEASE-TK), over 1000 nM; on PDGFRβ (HTRF KinEASE-TK), over 1000 nM.

Regarding `Cc1cc(F)c(C(=O)Nc2cnn(C(C)C)n2)cc1NC(=O)c1cnc(N)s1` [Example 171, 2-Amino-N-[4-fluoro-2-methyl-5-[(2-propan-2-yltriazol-4-yl)carbamoyl]phenyl]-1,3-thiazole-5-carboxamide], the IC50 is under 100 nM on c-Kit (HTRF KinEASE-TK); 100 to 1000 nM against PDGFRα (HTRF KinEASE-TK); 100 to 1000 nM at CSF1R (HTRF KinEASE-TK); over 1000 nM on FLT3 (HTRF KinEASE-TK); 100 to 1000 nM against PDGFRβ (HTRF KinEASE-TK).

On to `COC(c1ccc(NC(=O)c2cc(NC(=O)c3cnc(N)s3)c(C)cc2F)nc1)C1CC1` (centres unmarked) [Example 197, 2-Amino-N-[5-[[5-[cyclopropyl(methoxy)methyl]pyridin-2-yl]carbamoyl]-4-fluoro-2-methylphenyl]-1,3-thiazole-5-carboxamide], for which the IC50 is under 100 nM on c-Kit (HTRF KinEASE-TK); over 1000 nM against PDGFRα (HTRF KinEASE-TK); over 1000 nM against CSF1R (HTRF KinEASE-TK); over 1000 nM against FLT3 (HTRF KinEASE-TK); 100 to 1000 nM against PDGFRβ (HTRF KinEASE-TK).
